The text below walks through data of paper PMC4191062, “Development of αGlcN(1↔1)αMan-Based Lipid A Mimetics as a Novel Class of Potent Toll-like Receptor 4 Agonists” (Journal of Medicinal Chemistry, 2014).

Structures are written as SMILES. Like-named read-outs stand apart in the source and are kept apart here.

The target of the test is hTLR4/hMD-2/CD14-transfected HEK293 cells (Homo sapiens, UniProt O00206+Q9Y6Y9). The test is described as follows: hTLR4/MD-2/CD14-transfected HEK293 (HEK-Blue) activation assay, NF-κB-dependent SEAP reporter. The test is classed as cell-based. To be noted: for concentration at which TLR4 saturation plateau was reached: NF-κB/SEAP dose response. The text has this:
The propensity of the α,α-GM-LAMs 1–3 to stimulate TLR4-mediated immune signaling was first assessed in the hTLR4/hMD-2/CD14 transfected human embryonic kidney (HEK) 293 cells (HEK-Blue). Since we were particularly interested in the molecular recognition mechanisms implicated in the binding of LPS by the MD-2·TLR4 complex wherein the Lipid A/Re-LPS portion of LPS is exclusively involved, we evaluated the activities of α,α-GM-LAMs 1–3 compared to E. coliRe-LPS (Figure 1A). It has been previously shown that the minimum structural requirement for the expression of the highest cytokine-inducing potency resides in Re-LPS, which entails two 3-deoxy-D-manno-oct-2-ulosonic acid (Kdo) residues in addition to Lipid A (Supporting Information, SI-Figure 1A).[54],[55] Moreover, the Re-LPS has a defined molecular weight (MW) similar to the MW range for Lipid A mimetics (1.8–2.2 kDa), in contrast to wild-type LPS having variable MW (10–15 kDa), so that the direct comparison of a dose-dependent response between compounds 1–3 and Re-LPS is more appropriate. The TLR4-stimulating activity of Lipid A mimetics 1–3 was examined over a wide concentration range by monitoring of the activation of the NF-κB regulated signal transduction pathway via measuring the induction of secreted embryonic alkaline phosphatase (SEAP) and compared to the responses elicited by E. coliRe-LPS and SM-MPLA.
Growth conditions and activation assay were set as recommended by InvivoGen. The cells were stimulated with the solutions of compounds 1–3 or LPS/Re-LPS in DMEM supplemented by 10% FCS at the indicated concentrations. […] The compounds were added in a total volume of 20 μL to 25000 HEK-Blue hTLR4 cells in 180 μL plates and were incubated for 20–24 h at 37 °C and 5% CO2. SEAP levels were determined by incubation of 20 μL of challenged cell supernatants with 180 μL of detection reagent (QUANTI-Blue), and the color development was measured at 650 nm using a spectrophotometer (SpectraMAX 190). Data were combined from n = 3 independent experiments; error bars indicate standard error of the mean.
Supplementary SI-Figure 1
E. coli Re-LPS E. coli O111:B4
SI-Figure 1. (A) Dose-dependent activation of TLR4 signaling in hTLR4/hMD-2/hCD14 transfected HEK293 cells (HEK-Blue) by E. coli Re-LPS compared to E. coli O111:B4 LPS. [nM] concentrations were calculated from [ng/ml] concentrations based on the following molecular weights (MW): MWE. coli Re-LPS 2339 Da, MWE. coli O111:B4 LPS 10000 Da. (B) Dose-dependent activation of TLR4 signaling in hTLR4/hMD-2/hCD14 transfected HEK293 cells (HEK-Blue) by Lipid A mimetics 1- 3 compared to E. coli Re-LPS and S. minnesota MPLA. Non-linear curve fit (variable slope) was calculated using GraphPad Prism and is shown for the mean curves. Dotted lines indicate corresponding Ec50 values. Statistical analysis was performed on non-linear curve fits on individual datasets using an un-paired two-tailed t-test (*** indicates a p value < 0.001, ns indicates non-significant change). Top, bottom, hill slope and Ec50 values of non-linear curve fit on individual datasets are shown. […]

The mark [1] stands for this setting: SEAP induction, 20–24 h, mean curve, nM calculated from ng/ml via MW, read-out: EC50 NF-κB activation.
Where [2] appears, read: SEAP induction, mean curve, read-out: Ec50 (ng/ml) (converted).
The mark [3] stands for this setting: dataset n1, read-out: Ec50 (ng/ml), non-linear curve fit on individual dataset (converted).
Where [4] appears, read: dataset n2, read-out: Ec50 (ng/ml), non-linear curve fit on individual dataset (converted).
The mark [5] stands for this setting: dataset n3, read-out: Ec50 (ng/ml), non-linear curve fit on individual dataset (converted).

Chain of hTLR4/hMD-2/CD14-transfected HEK293 cells (O00206 24-839): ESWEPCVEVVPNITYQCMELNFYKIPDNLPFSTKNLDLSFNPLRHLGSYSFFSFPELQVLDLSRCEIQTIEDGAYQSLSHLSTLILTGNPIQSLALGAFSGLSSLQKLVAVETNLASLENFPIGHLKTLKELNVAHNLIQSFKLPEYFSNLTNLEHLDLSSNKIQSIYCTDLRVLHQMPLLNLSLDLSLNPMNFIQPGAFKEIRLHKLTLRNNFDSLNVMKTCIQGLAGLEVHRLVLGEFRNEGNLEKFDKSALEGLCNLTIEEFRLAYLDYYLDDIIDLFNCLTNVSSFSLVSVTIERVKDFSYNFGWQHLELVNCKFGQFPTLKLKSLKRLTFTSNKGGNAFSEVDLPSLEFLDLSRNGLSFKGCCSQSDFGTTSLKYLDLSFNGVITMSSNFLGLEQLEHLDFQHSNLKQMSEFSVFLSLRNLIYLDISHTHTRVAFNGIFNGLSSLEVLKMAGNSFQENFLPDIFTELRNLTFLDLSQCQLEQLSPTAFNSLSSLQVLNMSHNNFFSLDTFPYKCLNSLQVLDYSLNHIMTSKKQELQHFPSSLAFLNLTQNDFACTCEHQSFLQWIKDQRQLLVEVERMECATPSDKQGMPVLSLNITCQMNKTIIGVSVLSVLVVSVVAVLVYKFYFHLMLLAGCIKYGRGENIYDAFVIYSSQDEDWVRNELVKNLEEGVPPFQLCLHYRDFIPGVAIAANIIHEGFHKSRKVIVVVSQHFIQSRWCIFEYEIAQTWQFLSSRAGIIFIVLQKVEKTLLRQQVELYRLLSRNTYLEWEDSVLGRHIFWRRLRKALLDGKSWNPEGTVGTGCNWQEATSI
Chain of hTLR4/hMD-2/CD14-transfected HEK293 cells (Q9Y6Y9 17-160 limits assumed): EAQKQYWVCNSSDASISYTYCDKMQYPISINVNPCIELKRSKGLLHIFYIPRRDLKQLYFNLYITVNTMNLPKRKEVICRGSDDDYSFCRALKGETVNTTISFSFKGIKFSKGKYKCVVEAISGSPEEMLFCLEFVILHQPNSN

Turning to `CCCCCCCCCCCCCC(=O)O[C@H](CCCCCCCCCCC)CC(=O)O[C@@H]1[C@@H](NC(=O)C[C@@H](CCCCCCCCCCC)OC(=O)CCCCCCCCCCC)[C@@H](O[C@H]2O[C@H](CO)[C@@H](OC(=O)C[C@@H](CCCCCCCCCCC)OC(=O)CCCCCCCCCCC)[C@H](O)[C@@H]2OC)O[C@H](CO)[C@H]1OP(=O)(O)O` [Compound 3, 4-O-[(R)-3-(Dodecanoyloxy)tetradecanoyl]-2-O-methyl-α-D-mannopyranosyl-(1↔1)-2-deoxy-2-[(R)-3-(dodecanoyloxy)tetradecanoylamino]-4-O-phosphoryl-3-O-[(R)-3-(tetradecanoyloxy)tetradecanoyl]-α-D-glucopyranoside], the EC50 by setting is: under setting [1], 31 nM; under setting [2], 30.8 nM; under setting [3], 30.5 nM; under setting [4], 28.2 nM; under setting [5], 34.1 nM. For the same molecule, the “activation profile compared to SM-MPLA” value (at concentrations above 10 ng/mL) was “more potent activation profile than SM-MPLA”. The “Bottom of non-linear curve fit” value stood at 0.217 (dataset n1), 0.221 (dataset n2) and 0.216 (dataset n3). For the same molecule, the “HillSlope of non-linear curve fit” value (dataset n1) came to 1.120, the “HillSlope of non-linear curve fit” value (dataset n2) came out at 1.170 and the “HillSlope of non-linear curve fit” value (dataset n3) worked out at 1.145. The “Top of non-linear curve fit” value came to 1.425 (dataset n1), 1.426 (dataset n2) and 1.453 (dataset n3).

On to `CCCCCCCCCCCCCC(=O)O[C@H](CCCCCCCCCCC)CC(=O)O[C@@H]1[C@@H](NC(=O)C[C@@H](CCCCCCCCCCC)OC(=O)CCCCCCCCCCC)[C@@H](O[C@H]2O[C@H](COP(=O)(O)O)[C@@H](OC(=O)C[C@@H](CCCCCCCCCCC)OC(=O)CCCCCCCCC)[C@H](O)[C@@H]2OC)O[C@H](CO)[C@H]1OP(=O)(O)O` [Compound 2, 4-O-[(R)-3-(Decanoyloxy)tetradecanoyl]-2-O-methyl-6-O-phosphoryl-α-mannopyranosyl-(1↔1)-2-deoxy-2-[(R)-3-(dodecanoyloxy)tetradecanoylamino]-4-O-phosphoryl-3-O-[(R)-3-(tetradecanoyloxy)tetradecanoyl]-α-D-glucopyranoside], for which the “concentration at which TLR4 saturation plateau was reached” value stood at 1 ng/mL. Also, under “2 compared with 1”, the “fold increase of TLR-4 stimulating activity on shortening lipid side chain at Man C-4 by 2×CH2” value worked out at 5 fold. Besides, the EC50 under setting [1] is 0.08 nM. In addition, the EC50 under setting [2] is 0.0804 nM. Also, for the setting “dataset n1”, the “Bottom of non-linear curve fit” value was 0.216, the “HillSlope of non-linear curve fit” value worked out at 1.193 and the “Top of non-linear curve fit” value is listed as 1.330. In addition, under setting [3], the EC50 is 0.0884 nM. Further, where the note is “dataset n2”, the “Bottom of non-linear curve fit” value is reported as 0.232, the “HillSlope of non-linear curve fit” value is reported as 1.250 and the “Top of non-linear curve fit” value is given as 1.319. Moreover, the EC50 under setting [4] is 0.0827 nM. Under “dataset n3”, the “Bottom of non-linear curve fit” value amounted to 0.236, the “HillSlope of non-linear curve fit” value is reported as 1.246 and the “Top of non-linear curve fit” value is recorded as 1.320. For the same molecule, the EC50 under setting [5] is 0.0758 nM.

Regarding `CCCCCCCCCCCCCC(=O)O[C@H](CCCCCCCCCCC)CC(=O)O[C@@H]1[C@@H](NC(=O)C[C@@H](CCCCCCCCCCC)OC(=O)CCCCCCCCCCC)[C@@H](O[C@H]2O[C@H](COP(=O)(O)O)[C@@H](OC(=O)C[C@@H](CCCCCCCCCCC)OC(=O)CCCCCCCCCCC)[C@H](O)[C@@H]2OC)O[C@H](CO)[C@H]1OP(=O)(O)O` [Compound 1, 4-O-[(R)-3-(Dodecanoyloxy)tetradecanoyl]-2-O-methyl-6-O-phosphoryl-α-D-mannopyranosyl-(1↔1)-2-deoxy-2-[(R)-3-(dodecanoyloxy)tetradecanoylamino]-4-O-phosphoryl-3-O-[(R)-3-(tetradecanoyloxy)tetradecanoyl]-α-D-glucopyranoside], the “concentration at which TLR4 saturation plateau was reached” value was 5 ng/mL. Moreover, the EC50 under setting [1] is 0.4 nM. Besides, the EC50 under setting [2] is 0.424 nM. For the same molecule, where the note is “dataset n1”, the “Bottom of non-linear curve fit” value turned out to be 0.212, the “HillSlope of non-linear curve fit” value was determined as 1.282 and the “Top of non-linear curve fit” value was found to be 1.369. For the same molecule, the EC50 under setting [3] is 0.505 nM. For the setting “dataset n2”, the “Bottom of non-linear curve fit” value stood at 0.225, the “HillSlope of non-linear curve fit” value was determined as 1.341 and the “Top of non-linear curve fit” value stood at 1.312. In addition, under setting [4], the EC50 was 0.352 nM. Moreover, where the note is “dataset n3”, the “Bottom of non-linear curve fit” value was 0.215, the “HillSlope of non-linear curve fit” value is given as 1.257 and the “Top of non-linear curve fit” value worked out at 1.348. Further, the EC50 under setting [5] is 0.421 nM.
